Results taken from US20210387941A1, “Diphenyl-like Compound, Intermediate Thereof, Preparation Method Therefor, Pharmaceutical Composition Thereof And Uses Thereof” (SHANGHAI MAXINOVEL PHARMACEUTICALS CO., LTD., priority 2018, published 2021).

Target: T1, PD-1/PD-L1 (Homo sapiens, UniProt Q9NZQ7)
T1 construct: tag1 or tag2 (identity not disclosed); purchased CisBio 64CUS000C-1
Assay: Homogeneous Time-Resolved Fluorescence (HTRF) binding test
Conditions: CisBio kit #64CUS000C-1, read-out: IC50 values of compounds binding to PD-1/PD-L1
Description: The binding ability of the compounds of the present disclosure to PD-1/PD-L1 was detected using Homogeneous Time-Resolved Fluorescence (HTRF) binding test.
The purchased kit (CisBio, #64CUS000C-1) contained the reagents needed for experiments, such as PD-1, PD-L1, anti-tag1-Eu, Anti-tag2-XL665, Dilute Buffer and Detection Buffer.
1. The compound was prepared with 100% DMSO to 10 concentrations with a concentration gradient of 3 times.
2. A solution of the compound in DMSO was added into Dilute Buffer, mixed uniformly, and then transferred into 96-well plate.
3. PD-L1 was diluted with Dilute Buffer, and then added into the above 96-well plate.
4. PD-1 was diluted with Dilute Buffer, and then added into the above 96-well plate and incubated at room temperature for 30 minutes.
5. A part of anti-tag1-Eu and a part of Anti-tag2-XL665 were added into Detection Buffer, mixed uniformly and then transferred into the above 96-well plate.
6. The mixed solution in this 96-well plate was incubated at room temperature for 1 hour to 24 hours.
7. HTRF values were read with Envision.

T1 sequence (Q9NZQ7 19-238 limits assumed): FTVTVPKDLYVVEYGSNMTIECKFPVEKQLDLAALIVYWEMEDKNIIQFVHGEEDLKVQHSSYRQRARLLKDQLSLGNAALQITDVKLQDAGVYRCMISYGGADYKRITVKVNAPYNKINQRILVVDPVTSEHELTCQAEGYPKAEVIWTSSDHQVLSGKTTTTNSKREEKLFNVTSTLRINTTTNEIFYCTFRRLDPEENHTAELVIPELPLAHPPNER

Row | IC50 | Compound
1 | 6.1 nM | Cc1c(/C=C/c2cc(CNCCO)ccc2C(F)(F)F)cccc1-c1cccc(/C=C/c2cc(CNCCO)ccc2C(F)(F)F)c1C [Compound 1, 2-[({3-[(E)-2-(3-{3-[(E)-2-(5-{[(2-hydroxyethyl)amino]methyl}-2-(trifluoromethyl)phenyl)ethenyl]-2-methylphenyl}-2-methylphenyl)ethenyl]-4-(trifluoromethyl)phenyl}methyl)amino]-1-ethanol]
2 | 4.4 nM | Cc1c(/C=C/c2cc(CNCCO)ccc2C(F)(F)F)cccc1-c1cccc(/C=C/c2cc(CN[C@@](C)(CO)C(=O)O)ccc2C(F)(F)F)c1C [Compound 2, (2S)-3-hydroxy-2-[({3-[(E)-2-(3-{3-[(E)-2-(5-{[(2-hydroxyethyl)amino]methyl}-2-(trifluoromethyl)phenyl)ethenyl]-2-methylphenyl}-2-methylphenyl)ethenyl]-4-(trifluoromethyl)phenyl}methyl)amino]-2-methylpropanoic Acid]
3 | 3.2 nM | Cc1c(/C=C/c2cc(CN[C@@](C)(CO)C(=O)O)ccc2C(F)(F)F)cccc1-c1cccc(/C=C/c2cc(CN[C@@](C)(CO)C(=O)O)ccc2C(F)(F)F)c1C [Compound 3, (2S)-2-[({3-[(E)-2-(3-{3-[(E)-2-[5-({[(1S)-1-carboxyl-2-hydroxy-1-methylethyl]amino}methyl)-2-(trifluoromethyl)phenyl]ethenyl]-2-methylphenyl}-2-methylphenyl)ethenyl]-4-(trifluoromethyl)phenyl}methyl)amino]-3-hydroxy-2-methylpropanoic Acid]
4 | 4.3 nM | COCCNCc1ccc(C(F)(F)F)c(/C=C/c2cccc(-c3cccc(/C=C/c4cc(CNCCO)ccc4C(F)(F)F)c3C)c2Cl)c1 [Compound 4, 2-[({3-[(E)-2-(3-{3-[(E)-2-(5-{[(2-methoxyethyl)amino]methyl}-2-(trifluoromethyl)phenyl)ethenyl]-2-chlorophenyl}-2-methylphenyl)ethenyl]-4-(trifluoromethyl)phenyl}methyl)amino]-1-ethanol]
5 | 2.3 nM | COCCNCc1ccc(C(F)(F)F)c(/C=C/c2cccc(-c3cccc(/C=C/c4cc(CN[C@@](C)(CO)C(=O)O)ccc4C(F)(F)F)c3C)c2Cl)c1 [Compound 5, (2S)-3-hydroxy-2-[({3-[(E)-2-(3-{3-[(E)-2-(5-{[(2-methoxyethyl)amino]methyl}-2-(trifluoromethyl)phenyl)ethenyl]-2-chlorophenyl}-2-methylphenyl)ethenyl]-4-(trifluoromethyl)phenyl}methyl)amino]-2-methylpropanoic Acid]
6 | 2.8 nM | Cc1c(/C=C/c2cc(CN[C@@](C)(CO)C(=O)O)ccc2C(F)(F)F)cccc1-c1cccc(/C=C/c2cc(CNCCO)ccc2C(F)(F)F)c1Cl [Compound 6, (2S)-3-hydroxy-2-[({3-[(E)-2-(3-{3-[(E)-2-(5-{[(2-hydroxyethyl)amino]methyl}-2-(trifluoromethyl)phenyl)ethenyl]-2-chlorophenyl}-2-methylphenyl)ethenyl]-4-(trifluoromethyl)phenyl}methyl)amino]-2-methylpropanoic Acid]
7 | 2.6 nM | Cc1c(/C=C/c2cc(CNCCO)ccc2C(F)(F)F)cccc1-c1cccc(/C=C/c2cc(CNCCO)ccc2C(F)(F)F)c1Cl [Compound 7, 2-[({3-[(E)-2-(3-{3-[(E)-2-(5-{[(2-hydroxyethyl)amino]methyl}-2-(trifluoromethyl)phenyl)ethenyl]-2-chlorophenyl}-2-methylphenyl)ethenyl]-4-(trifluoromethyl)phenyl}methyl)amino]-1-ethanol]
8 | 510 nM | COCCOc1ccc(F)c(/C=C/c2cccc(-c3cccc(/C=C/c4cc(CN[C@@](C)(CO)C(=O)O)ccc4C(F)(F)F)c3C)c2C)c1 [Compound 8, (2S)-3-hydroxy-2-[({3-[(E)-2-[3-(3-(E)-{2-[2-fluoro-5-(2-methoxyethoxy)phenyl]ethenyl}-2-methylphenyl)-2-methylphenyl]ethenyl]-4-(trifluoromethyl)phenyl}methyl)amino]-2-methylpropanoic Acid]
9 | 7.5 nM | Cc1c(/C=C/c2cc(CNCCO)ccc2C(F)(F)F)cccc1-c1cccc(-c2cccc(CNCCO)c2)c1C [Compound 9, 2-({[(3-(E)-2-{3-[3-(3-{[(2-hydroxyethyl)amino]methyl}phenyl)-2-methylphenyl]-2-methylphenyl}ethenyl)-4-(trifluoromethyl)phenyl]methyl}amino)-1-ethanol]
10 | 14 nM | Cc1c(/C=C/c2cc(CNCCO)ccc2C(F)(F)F)cccc1-c1cccc(-c2cc(CNCCO)ccc2F)c1C [Compound 10, 2-({[(3-(E)-2-{3-[3-(5-{[(2-hydroxyethyl)amino]methyl}-2-fluoro-phenyl)-2-methylphenyl]-2-methylphenyl}ethenyl)-4-(trifluoromethyl)phenyl]methyl}amino)-1-ethanol]
11 | 8.7 nM | Cc1c(/C=C/c2cc(CN[C@@](C)(CO)C(=O)O)ccc2C(F)(F)F)cccc1-c1cccc(-c2cc(CN[C@@](C)(CO)C(=O)O)ccc2F)c1C [Compound 11, (2S)-2-[({3-[(E)-2-(3-{3-[5-({[(1S)-1-carboxyl-2-hydroxy-1-methylethyl]amino}methyl)-2-fluorophenyl]-2-methylphenyl}-2-methylphenyl)ethenyl]-4-(trifluoromethyl)phenyl}methyl)amino]-3-hydroxy-2-methylpropanoic acid]
12 | 4.7 nM | Cc1c(/C=C/c2cc(CNCCO)ccc2C(F)(F)F)cccc1-c1cccc(/C=C/c2cc(CNCCO)ccc2C(F)(F)F)c1CF [Compound 12, 2-[({3-[(E)-2-(3-{3-[(E)-2-(5-{[(2-hydroxyethyl)amino]methyl}-2-(trifluoromethyl)phenyl)ethenyl]-2-(fluoromethyl)phenyl}-2-methylphenyl)ethenyl]-4-(trifluoromethyl)phenyl}methyl)amino]-1-ethanol]
